This note sets out measurements from patent US12012417B2, “N-substituted tetrahydrothienopyridine derivatives and uses thereof” (NOVARTIS AG, priority 2018, dated 2024).

Structures can show the parent of a compound that is named as a salt. Some results are limits rather than exact numbers.

The subject of assay [1] is Dengue 1 virus MY97-10245. Description: High-content imaging cell-based flavivirus immunodetection (HCl-CFI) assay, Dengue 1. Particulars: for EC50: Dengue virus, A549, 48 h, read-out: Dengue 1 virus MY97-10245 in A549 using HCl [Inhibitor/IC50] Qualified AC50.
In assay [2] the test system is Dengue 3 virus MY05-34640-WT-C6/36. The assay can be described thus: High-content imaging cell-based flavivirus immunodetection (HCl-CFI) assay, Dengue 3. Particulars: for EC50: Dengue virus, A549, 48 h, read-out: Dengue 3 virus MY05-34640-WT-C6/36 in A549 using HCl [Inhibitor/IC50] Qualified AC50.
The subject of assay [3] is Dengue 2 virus MY97-10340. Description: High-content imaging cell-based flavivirus immunodetection (HCl-CFI) assay, Dengue 2. As to conditions: for EC50: Dengue virus, A549, 48 h, read-out: Dengue 2 virus MY97-10340 in A549 using HCl [Inhibitor/IC50] Qualified AC50, A549 cells, MOI 0.3, 48 h, viral E protein expression. The procedure:
High-Content Imaging Cell-Based Flavivirus Immunodetection (HCl-CFI) Assay
A549 cells (7×10^3 cells per well) in a 384-well plate were infected with the DENV-2 (MY97-10340) strain at an MOI of 0.3. The cells were then treated with 3-fold, 10-point serial dilutions of test compound. After 48 h, the cells were fixed with paraformadehyde, and the viral E protein detected with 4G2 antibody labeled with Dylight™ 488 (GenScript). Cell nuclei were stained with Draq5 (Pierce/Thermo), and images were taken on the Opera imaging system (Perkin Elmer). A dose-response curve was plotted to calculate the effective concentration of compound needed to reduce expression of E protein by 50% (EC50) using GraphPad Prism.
The resulted EC50 values are summarized in Table 1 below: ±≥1 μM; 1 μM>++≥0.1 μM; 0.1 μm>+++

The test system of assay [4] is Dengue 4 virus MY01-22713. The assay can be described thus: High-content imaging cell-based flavivirus immunodetection (HCl-CFI) assay, Dengue 4. As to conditions: for EC50: Dengue virus, A549, 48 h, read-out: Dengue 4 virus MY01-22713 in A549 using HCl [Inhibitor/IC50] Qualified AC50, A549 cells, 48 h, viral E protein expression.
The mark [5] stands for this setting: A549 cells, 48 h, viral E protein expression.

`CC1Cc2c(sc(NC(=O)Cc3ccc(S(N)(=O)=O)cc3)c2C#N)CN1Cc1cccc(F)c1` (stereo not shown) [Example 123, N-(3-cyano-6-(3-fluorobenzyl)-5-methyl-4,5,6,7-tetrahydrothieno[2,3-c]pyridin-2-yl)-2-(4-sulfamoylphenyl)acetamide]: the “Dengue 1 virus MY97-10245 in A549 using HCl [Inhibitor/IC50] Qualified AC50” value in assay [1] (setting [5]) is given as “+ (±≥1 μM)”. The “Dengue 3 virus MY05-34640-WT-C6/36 in A549 using HCl [Inhibitor/IC50] Qualified AC50” value in assay [2] (setting [5]) is on record as “++ (1 μM>++≥0.1 μM)”. In addition, in assay [3] (A549 cells, MOI 0.3, 48 h, viral E protein expression), the “Dengue 2 virus MY97-10340 in A549 using HCl [Inhibitor/IC50] Qualified AC50” value is given as “++ (1 μM>++≥0.1 μM)”. Besides, the “Dengue 4 virus MY01-22713 in A549 using HCl [Inhibitor/IC50] Qualified AC50” value in assay [4] (setting [5]) is given as “++ (1 μM>++≥0.1 μM)”.
On to `COc1cc(CC(=O)Nc2sc3c(c2C#N)CN(CC2CCCCC2)CC3)ccc1S(N)(=O)=O` [Example 7, N-(3-cyano-5-(cyclohexylmethyl)-4,5,6,7-tetrahydrothieno[3,2-c]pyridin-2-yl)-2-(3-methoxy-4-sulfamoylphenyl)acetamide], for which the EC50 in assay [1], in assay [2], in assay [3] and in assay [4] was less than 100 nM throughout.
For the compound `CC1Cc2c(sc(NC(=O)Cc3ccc(S(N)(=O)=O)cc3)c2C#N)CN1Cc1cccc(F)c1` (stereo not shown) [Example 122, N-(3-cyano-6-(3-fluorobenzyl)-5-methyl-4,5,6,7-tetrahydrothieno[2,3-c]pyridin-2-yl)-2-(4-sulfamoylphenyl)acetamide], the EC50 in assay [1] is greater than 1000 nM; in assay [2], 100 to 1000 nM; in assay [3] it was less than 100 nM; in assay [4], less than 100 nM.
Turning to `CN(C)S(=O)(=O)c1ccc(CC(=O)Nc2sc3c(c2C#N)CN(Cc2cccc(F)c2)CC3)cc1` [Example 47, N-(3-cyano-5-(3-fluorobenzyl)-4,5,6,7-tetrahydrothieno[3,2-c]pyridin-2-yl)-2-(4-(N,N-dimethylsulfamoyl)phenyl)acetamide], the EC50 in assay [1] is 100 to 1000 nM; in assay [2], less than 100 nM; in assay [3], less than 100 nM; in assay [4] it was 100 to 1000 nM.
In the case of `CC1Cc2sc(NC(=O)Cc3ccc(S(N)(=O)=O)cc3)c(C#N)c2CN1CC1CCCC1` (stereo not shown) [Example 59, N-(3-cyano-5-(cyclopentylmethyl)-6-methyl-4,5,6,7-tetrahydrothieno[3,2-c]pyridin-2-yl)-2-(4-sulfamoylphenyl)acetamide hydrochloride], the EC50 in assay [1] was greater than 1000 nM; in assay [2] it was 100 to 1000 nM; in assay [3], 100 to 1000 nM; in assay [4], 100 to 1000 nM.
As to `N#Cc1c(NC(=O)Cc2ccc(S(=O)(=O)C(F)F)cc2)sc2c1CN(Cc1cccc(F)c1)CC2` [Example 45, N-(3-cyano-5-(3-fluorobenzyl)-4,5,6,7-tetrahydrothieno[3,2-c]pyridin-2-yl)-2-(4-((difluoromethyl)sulfonyl)phenyl)acetamide], the EC50 is greater than 1000 nM in assay [1], 100 to 1000 nM in assay [2], greater than 1000 nM in assay [3] and 100 to 1000 nM in assay [4].
With `CS(=O)(=O)Cc1ccc(CC(=O)Nc2sc3c(c2C#N)CN(Cc2cccc(F)c2)CC3)cc1` [Example 32, N-(3-cyano-5-(3-fluorobenzyl)-4,5,6,7-tetrahydrothieno[3,2-c]pyridin-2-yl)-2-(4-((methylsulfonyl)methyl)phenyl)acetamide], the EC50 in assay [1] is 100 to 1000 nM; in assay [2], less than 100 nM; in assay [3], 100 to 1000 nM; in assay [4], less than 100 nM.
Regarding `CC1Cc2sc(NC(=O)Cc3ccc(S(N)(=O)=O)cc3)c(C#N)c2CN1CC1CCCCC1` (stereo not shown) [Example 62, N-(3-cyano-5-(cyclohexylmethyl)-6-methyl-4,5,6,7-tetrahydrothieno[3,2-c]pyridin-2-yl)-2-(4-sulfamoylphenyl)acetamide], the EC50 in assay [1] is 100 to 1000 nM; in assay [2], less than 100 nM; in assay [3] it was less than 100 nM; in assay [4] it was less than 100 nM.
`CCC1Cc2sc(NC(=O)Cc3ccc(S(N)(=O)=O)cc3)c(C#N)c2CN1Cc1cccc(F)c1` (stereo not shown) [Example 87, N-(3-cyano-6-ethyl-5-(3-fluorobenzyl)-4,5,6,7-tetrahydrothieno[3,2-c]pyridin-2-yl)-2-(4-sulfamoylphenyl)acetamide]: the EC50 in assay [1] is 100 to 1000 nM; in assay [2], less than 100 nM; in assay [3], less than 100 nM; in assay [4] it was less than 100 nM.
As for `Cn1cc(S(N)(=O)=O)cc1CC(=O)Nc1sc2c(c1C#N)CN(CC1CCCCC1)CC2` [Example 88, N-(3-cyano-5-(cyclohexylmethyl)-4,5,6,7-tetrahydrothieno[3,2-c]pyridin-2-yl)-2-(1-methyl-4-sulfamoyl-1H-pyrrol-2-yl)acetamide], the EC50 was 100 to 1000 nM in assay [1], less than 100 nM in assay [2], less than 100 nM in assay [3] and less than 100 nM in assay [4].
As to `Cc1ccccc1CN1CCc2c(sc(NC(=O)Cc3ccc(S(C)(=O)=O)cc3)c2C#N)C1` [Example 103, N-(3-cyano-6-(2-methylbenzyl)-4,5,6,7-tetrahydrothieno[2,3-c]pyridin-2-yl)-2-(4-(methylsulfonyl)phenyl)acetamide], the EC50 in assay [1], in assay [2], in assay [3] and in assay [4] was 100 to 1000 nM in each case.
With `N#Cc1c(NC(=O)Cc2ccc3c(c2)CNS3(=O)=O)sc2c1CN(Cc1cccc(F)c1)CC2` [Example 23, N-(3-cyano-5-(3-fluorobenzyl)-4,5,6,7-tetrahydrothieno[3,2-c]pyridin-2-yl)-2-(1,1-dioxido-2,3-dihydrobenzo[d]isothiazol-5-yl)acetamide], the EC50 in assay [1] was 100 to 1000 nM; in assay [2], less than 100 nM; in assay [3], 100 to 1000 nM; in assay [4], 100 to 1000 nM.
As to `N#Cc1c(NC(=O)Cc2ccc(S(N)(=O)=O)cc2)sc2c1CCCN(CC1CCCCC1)C2` [Example 127, N-(3-cyano-7-(cyclohexylmethyl)-5,6,7,8-tetrahydro-4H-thieno[2,3-c]azepin-2-yl)-2-(4-sulfamoylphenyl)acetamide], the EC50 in assay [1] was greater than 1000 nM; in assay [2], 100 to 1000 nM; in assay [3] it was 100 to 1000 nM; in assay [4], 100 to 1000 nM.
Take `CC1Cc2sc(NC(=O)Cc3ccc(S(C)(=O)=O)cc3)c(C#N)c2CN1Cc1cc(Cl)ccc1Cl` (stereo not shown) [Example 70, N-(3-cyano-5-(2,5-dichlorobenzyl)-6-methyl-4,5,6,7-tetrahydrothieno[3,2-c]pyridin-2-yl)-2-(4-(methylsulfonyl)phenyl)acetamide]: the EC50 was 100 to 1000 nM in assay [1], less than 100 nM in assay [2], less than 100 nM in assay [3] and less than 100 nM in assay [4].
Regarding `N#Cc1c(NC(=O)Cc2ccc(S(N)(=O)=O)cc2)sc2c1CCCN(Cc1cccc(F)c1)C2` [Example 126, N-(3-cyano-7-(3-fluorobenzyl)-5,6,7,8-tetrahydro-4H-thieno[2,3-c]azepin-2-yl)-2-(4-sulfamoylphenyl)acetamide], the EC50 in assay [1] is 100 to 1000 nM; in assay [2], 100 to 1000 nM; in assay [3], 100 to 1000 nM; in assay [4], less than 100 nM.
Regarding `N#Cc1c(NC(=O)Cc2ccc(S(N)(=O)=O)cc2)sc2c1CN(Cc1cccc(F)c1)CC2` [Example 5, N-(3-cyano-5-(3-fluorobenzyl)-4,5,6,7-tetrahydrothieno[3,2-c]pyridin-2-yl)-2-(4-sulfamoylphenyl)acetamide], the EC50 was 100 to 1000 nM in assay [1], less than 100 nM in assay [2], less than 100 nM in assay [3] and less than 100 nM in assay [4].
As to `N#Cc1c(NC(=O)Cc2ccc(S(N)(=O)=O)cc2)sc2c1CCN(CC1CCCCC1)C2` [Example 92, N-(3-cyano-6-(cyclohexylmethyl)-4,5,6,7-tetrahydrothieno[2,3-c]pyridin-2-yl)-2-(4-sulfamoylphenyl) acetamide], the EC50 in assay [1] was 100 to 1000 nM; in assay [2] it was 100 to 1000 nM; in assay [3] it was less than 100 nM; in assay [4], less than 100 nM.
Take `N#Cc1c(NC(=O)Cc2ccc(S(N)(=O)=O)c(F)c2)sc2c1CN(CC1CCCCC1)CC2` [Example 9, N-(3-cyano-5-(cyclohexylmethyl)-4,5,6,7-tetrahydrothieno[3,2-c]pyridin-2-yl)-2-(3-fluoro-4-sulfamoylphenyl)acetamide]: the EC50 is 100 to 1000 nM in assay [1], less than 100 nM in assay [2], less than 100 nM in assay [3] and less than 100 nM in assay [4].
Consider `CNS(=O)(=O)c1ccc(CC(=O)Nc2sc3c(c2C#N)CN(Cc2cccc(F)c2)CC3)cc1` [Example 29, N-(3-cyano-5-(3-fluorobenzyl)-4,5,6,7-tetrahydrothieno[3,2-c]pyridin-2-yl)-2-(4-(N-methylsulfamoyl)phenyl)acetamide], for which the EC50 is 100 to 1000 nM in assay [1], less than 100 nM in assay [2], less than 100 nM in assay [3] and less than 100 nM in assay [4].
